pIC50: −log10 of the molar value.
Legend:
Assay type in all cases: biochemical
Lyn = Lyn (Homo sapiens, UniProt P07948); assay: Lyn kinase inhibition
BLK = BLK (Homo sapiens, UniProt P51451); assay: BLK kinase inhibition
Method: (§1) Btk kinase activity was determined using a time-resolved fluorescence resonance energy transfer (TR-FRET) methodology. Measurements were performed in a reaction volume of 50 μL using 96-well assay plates. […] The reaction was quenched by the addition of 1.2 equivalents of EDTA (relative to divalent cation) in 25 μL of 1× Lance buffer (Perkin-Elmer). Streptavidin-APC (Perkin-Elmer) and Eu-labeled p-Tyr100 antibody (Perkin-Elmer) in 1× Lance buffer were added in a 25 μL volume to give final concentrations of 100 nM and 2.5 nM, respectively, and the mixture was allowed to incubate for one hour. The TR-FRET signal was measured on a multimode plate reader with an excitation wavelength (λEx) of 330 nm and detection wavelengths (λEm) of 615 and 665 nm. Activity was determined by the ratio of the fluorescence at 665 nm to that at 615 nm. For each compound, enzyme activity was measured at various concentrations of compound. Negative control reactions were performed in the absence of inhibitor in replicates of six, and two no-enzyme controls were used to determine baseline fluorescence levels Inhibition constants, Ki(app), were obtained using the program BatchKi (Kuzmic et al. (2000), Anal. Biochem. 286:45-50). IC50s were obtained according to the equation: IC50={Ki(app)/(1+[ATP]/Km^ATP)}+[E]total/2; For all kinases, [ATP]=Km^ATP, [Btk]total=0.5 nM and [Lck]total=6 nM.

BMX = target: T1, BMX (Homo sapiens, UniProt P51813); assay: BMX kinase inhibition
T1 sequence (P51813 1-675): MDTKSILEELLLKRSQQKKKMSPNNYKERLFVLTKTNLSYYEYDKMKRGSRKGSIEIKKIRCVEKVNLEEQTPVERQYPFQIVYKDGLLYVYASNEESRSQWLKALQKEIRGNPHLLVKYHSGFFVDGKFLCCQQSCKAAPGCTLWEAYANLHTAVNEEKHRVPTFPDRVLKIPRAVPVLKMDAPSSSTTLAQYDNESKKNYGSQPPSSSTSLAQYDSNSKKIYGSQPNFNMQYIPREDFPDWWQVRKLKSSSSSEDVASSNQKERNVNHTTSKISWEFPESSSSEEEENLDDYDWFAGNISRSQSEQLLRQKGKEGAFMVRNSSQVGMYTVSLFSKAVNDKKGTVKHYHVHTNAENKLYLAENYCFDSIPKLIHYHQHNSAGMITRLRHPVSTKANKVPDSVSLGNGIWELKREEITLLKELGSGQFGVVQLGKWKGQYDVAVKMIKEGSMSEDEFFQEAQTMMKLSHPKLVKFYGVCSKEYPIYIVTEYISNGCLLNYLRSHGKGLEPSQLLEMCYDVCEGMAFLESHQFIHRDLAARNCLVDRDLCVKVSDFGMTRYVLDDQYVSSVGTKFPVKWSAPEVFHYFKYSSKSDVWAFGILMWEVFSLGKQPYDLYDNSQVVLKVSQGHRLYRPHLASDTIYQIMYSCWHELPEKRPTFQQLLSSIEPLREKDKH

CSK = CSK (Homo sapiens, UniProt P41240); assay: CSK kinase inhibition
Chain of CSK (P41240 whole entry): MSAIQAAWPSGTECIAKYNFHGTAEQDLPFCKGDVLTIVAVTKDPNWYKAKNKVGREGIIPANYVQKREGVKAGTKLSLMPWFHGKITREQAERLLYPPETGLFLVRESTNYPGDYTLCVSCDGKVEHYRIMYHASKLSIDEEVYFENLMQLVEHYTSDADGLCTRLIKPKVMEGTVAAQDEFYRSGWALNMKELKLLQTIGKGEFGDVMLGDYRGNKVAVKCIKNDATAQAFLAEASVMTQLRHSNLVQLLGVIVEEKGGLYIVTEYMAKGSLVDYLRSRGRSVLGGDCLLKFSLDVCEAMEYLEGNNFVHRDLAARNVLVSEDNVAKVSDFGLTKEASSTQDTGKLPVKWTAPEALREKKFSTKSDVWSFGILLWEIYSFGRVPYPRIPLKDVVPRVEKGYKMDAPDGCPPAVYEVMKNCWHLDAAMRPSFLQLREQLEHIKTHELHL

Lck = Lck (Homo sapiens, UniProt P06239); assay: Lck kinase inhibition
Chain of Lck (P06239 whole entry): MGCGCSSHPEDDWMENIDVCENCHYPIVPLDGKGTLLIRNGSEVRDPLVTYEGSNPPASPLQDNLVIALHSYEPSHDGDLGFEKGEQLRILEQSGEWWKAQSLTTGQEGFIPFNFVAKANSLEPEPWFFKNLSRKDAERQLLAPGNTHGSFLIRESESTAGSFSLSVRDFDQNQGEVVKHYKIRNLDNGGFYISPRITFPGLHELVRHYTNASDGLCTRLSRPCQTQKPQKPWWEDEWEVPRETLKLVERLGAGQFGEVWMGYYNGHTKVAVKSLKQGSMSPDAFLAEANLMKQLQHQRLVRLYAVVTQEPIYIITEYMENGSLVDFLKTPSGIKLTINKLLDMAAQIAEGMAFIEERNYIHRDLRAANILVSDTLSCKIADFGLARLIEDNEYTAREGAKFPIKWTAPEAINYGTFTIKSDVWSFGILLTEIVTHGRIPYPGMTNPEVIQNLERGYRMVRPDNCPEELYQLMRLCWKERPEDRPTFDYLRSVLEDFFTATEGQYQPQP
Method: as §1

Btk = target: T2, Btk (Homo sapiens, UniProt Q06187); assay: Btk in vitro inhibitory activity (one of Methods A, B, C); details: determined in one of three in vitro assays (Examples 125-127)
T2 construct: purified from insect cells as a full-length construct containing a N-terminal 6×-His tag; 6xHis (N); host or cells: insect cells (baculovirus Sf21 in Method B)
T2 sequence (Q06187 whole entry): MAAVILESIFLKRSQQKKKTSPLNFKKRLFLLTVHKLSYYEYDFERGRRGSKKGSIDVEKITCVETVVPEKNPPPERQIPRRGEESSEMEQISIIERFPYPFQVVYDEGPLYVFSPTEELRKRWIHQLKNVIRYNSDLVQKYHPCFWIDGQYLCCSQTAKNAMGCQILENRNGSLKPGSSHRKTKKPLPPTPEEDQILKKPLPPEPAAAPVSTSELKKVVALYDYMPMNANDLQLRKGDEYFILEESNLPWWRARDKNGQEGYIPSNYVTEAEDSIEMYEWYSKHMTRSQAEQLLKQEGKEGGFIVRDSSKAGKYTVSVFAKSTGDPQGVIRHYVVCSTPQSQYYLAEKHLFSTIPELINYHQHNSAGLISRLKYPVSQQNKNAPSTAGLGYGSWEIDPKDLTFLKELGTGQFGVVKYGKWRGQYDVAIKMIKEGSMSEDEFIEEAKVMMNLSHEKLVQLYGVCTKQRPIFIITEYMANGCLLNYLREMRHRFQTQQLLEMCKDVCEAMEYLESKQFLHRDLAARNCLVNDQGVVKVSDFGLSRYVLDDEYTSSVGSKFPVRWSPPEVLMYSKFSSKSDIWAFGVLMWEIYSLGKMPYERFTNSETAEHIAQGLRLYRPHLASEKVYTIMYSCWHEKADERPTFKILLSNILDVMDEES
Method: The Btk IC50s of compounds disclosed herein was determined in one of the three in vitro assays described in Examples 125-127.
as §1
Kinase activity is measured in vitro using electrophoretic mobility shift assay. The kinase reactions are assembled in a total volume of 25 μL in 384 well plates. […] The reaction is incubated for one hour and is quenched by the addition of 45 μL of termination buffer (100 mM HEPES, pH7.5, 0.01% Triton X-100, 30 mM EDTA). The terminated reactions are analyzed using 12 channel LabChip® 3000 microfluidic detection instrument (Caliper Life Sciences). The enzymatic phosphorylation of the peptide results in a change in net charge, enabling electrophoretic separation of product from substrate peptide. As substrate and product peptides are separated, two peaks of fluorescence are observed. Change in the relative fluorescence intensity of the substrate and product peaks is the parameter measured, reflecting enzyme activity. In the presence of an inhibitor, the ratio between product and substrate is altered: the signal of the product decreases, while the signal of the substrate increases.
Activity in each sample is determined as the product to sum ratio (PSR): P/(S+P), where P is the peak height of the product peptide and S is the peak height of the substrate peptide. For each compound, enzyme activity is measured at various concentrations (12 concentrations of compound spaced by 3× dilution intervals). Negative control samples (0%-inhibition in the absence of inhibitor) and positive control samples (100%-inhibition, in the presence of 20 mM EDTA) are assembled in replicates of four and are used to calculate %-inhibition values for each inhibitor at each concentration. Percent inhibition (Pinh) is determined using following equation: Pinh=(PSR0%−PSRinh)/(PSR0%−PSR100%)*100, where PSRinh is the product sum ratio in the presence of inhibitor, PSR0% is the average product sum ration in the absence of inhibitor and PSR100% is the average product sum ratio in 100%-inhibition control samples;
The IC50 values of inhibitors are determined by 4 parameter sigmoidal dose-response model fitting of the inhibition curves (Pinh versus inhibitor concentration) using XLfit 4 software.
Human Btk kinase (Genbank accession # NP_000052) was purified from insect cells as a full-length construct containing a N-terminal 6×-His tag. Btk kinase activity was determined using a radiometric filter binding assay. Measurements are performed in a low reaction volume 384-well assay plates. […]

C-src = C-src (Homo sapiens, UniProt P12931); assay: C-src kinase inhibition
Chain of C-src (P12931 whole entry): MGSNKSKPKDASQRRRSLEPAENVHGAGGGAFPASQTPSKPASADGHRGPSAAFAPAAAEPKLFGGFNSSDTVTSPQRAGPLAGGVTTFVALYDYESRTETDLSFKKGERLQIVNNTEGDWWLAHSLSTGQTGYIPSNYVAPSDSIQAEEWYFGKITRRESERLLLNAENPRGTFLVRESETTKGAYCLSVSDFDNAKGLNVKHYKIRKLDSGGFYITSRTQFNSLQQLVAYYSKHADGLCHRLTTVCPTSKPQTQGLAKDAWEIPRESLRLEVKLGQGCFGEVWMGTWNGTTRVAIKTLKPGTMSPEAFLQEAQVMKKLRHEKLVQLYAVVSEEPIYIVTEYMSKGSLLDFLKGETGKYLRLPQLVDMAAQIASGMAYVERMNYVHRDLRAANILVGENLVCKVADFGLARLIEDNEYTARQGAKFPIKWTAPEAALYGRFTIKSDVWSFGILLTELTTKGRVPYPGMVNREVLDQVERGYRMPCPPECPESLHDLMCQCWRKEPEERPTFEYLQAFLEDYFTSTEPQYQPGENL
Method: as §1

Tec = target: T3, Tec (Homo sapiens, UniProt P42680); assay: Tec kinase inhibition
T3 sequence (P42680 1-631): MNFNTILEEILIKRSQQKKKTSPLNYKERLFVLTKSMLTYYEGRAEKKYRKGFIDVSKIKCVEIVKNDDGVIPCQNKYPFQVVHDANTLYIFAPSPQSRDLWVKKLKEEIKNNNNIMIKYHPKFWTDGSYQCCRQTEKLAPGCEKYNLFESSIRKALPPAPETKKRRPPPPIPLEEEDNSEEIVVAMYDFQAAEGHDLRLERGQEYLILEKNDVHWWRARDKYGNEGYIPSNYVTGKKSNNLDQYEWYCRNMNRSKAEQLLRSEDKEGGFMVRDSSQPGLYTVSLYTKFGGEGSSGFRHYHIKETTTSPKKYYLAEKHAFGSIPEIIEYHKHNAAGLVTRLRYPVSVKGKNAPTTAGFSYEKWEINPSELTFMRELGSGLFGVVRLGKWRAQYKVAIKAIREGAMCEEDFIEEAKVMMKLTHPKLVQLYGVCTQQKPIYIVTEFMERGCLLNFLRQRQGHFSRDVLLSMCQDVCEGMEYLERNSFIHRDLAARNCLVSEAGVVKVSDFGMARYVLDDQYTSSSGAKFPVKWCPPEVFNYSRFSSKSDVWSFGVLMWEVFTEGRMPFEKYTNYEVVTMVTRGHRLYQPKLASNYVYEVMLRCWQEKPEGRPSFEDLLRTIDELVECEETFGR
Method: as §1

RET = RET (Homo sapiens, UniProt P07949); assay: RET kinase inhibition
Chain of RET (P07949 29-1114): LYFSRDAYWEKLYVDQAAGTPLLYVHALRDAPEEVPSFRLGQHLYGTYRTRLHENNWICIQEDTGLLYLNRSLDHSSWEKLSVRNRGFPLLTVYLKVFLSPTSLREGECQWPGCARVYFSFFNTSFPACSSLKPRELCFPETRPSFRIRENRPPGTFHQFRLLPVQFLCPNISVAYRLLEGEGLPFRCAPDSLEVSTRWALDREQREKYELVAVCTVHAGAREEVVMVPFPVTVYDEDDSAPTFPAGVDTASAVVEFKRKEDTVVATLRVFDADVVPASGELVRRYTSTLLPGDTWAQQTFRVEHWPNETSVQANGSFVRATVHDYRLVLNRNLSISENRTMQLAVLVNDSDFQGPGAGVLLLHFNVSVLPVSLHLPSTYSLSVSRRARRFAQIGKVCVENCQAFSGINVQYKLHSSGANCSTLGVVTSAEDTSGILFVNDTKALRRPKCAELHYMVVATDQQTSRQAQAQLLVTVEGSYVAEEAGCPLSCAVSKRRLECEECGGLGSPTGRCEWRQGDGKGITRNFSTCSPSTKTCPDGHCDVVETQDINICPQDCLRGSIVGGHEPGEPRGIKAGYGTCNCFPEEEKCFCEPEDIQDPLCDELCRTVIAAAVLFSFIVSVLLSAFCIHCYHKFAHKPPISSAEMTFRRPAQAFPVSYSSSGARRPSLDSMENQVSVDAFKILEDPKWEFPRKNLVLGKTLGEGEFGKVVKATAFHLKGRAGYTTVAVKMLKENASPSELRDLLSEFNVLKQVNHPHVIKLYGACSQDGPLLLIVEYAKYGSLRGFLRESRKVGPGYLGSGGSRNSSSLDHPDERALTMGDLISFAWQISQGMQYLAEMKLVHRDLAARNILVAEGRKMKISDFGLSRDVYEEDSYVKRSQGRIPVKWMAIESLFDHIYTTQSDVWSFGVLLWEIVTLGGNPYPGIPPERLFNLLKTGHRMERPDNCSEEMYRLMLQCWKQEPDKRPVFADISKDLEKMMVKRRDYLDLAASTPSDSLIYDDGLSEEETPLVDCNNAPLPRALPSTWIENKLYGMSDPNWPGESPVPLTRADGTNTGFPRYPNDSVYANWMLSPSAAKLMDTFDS

EGFR = EGFR (Homo sapiens, UniProt P00533); assay: EGFR kinase inhibition

Chain of Lyn (P07948 whole entry): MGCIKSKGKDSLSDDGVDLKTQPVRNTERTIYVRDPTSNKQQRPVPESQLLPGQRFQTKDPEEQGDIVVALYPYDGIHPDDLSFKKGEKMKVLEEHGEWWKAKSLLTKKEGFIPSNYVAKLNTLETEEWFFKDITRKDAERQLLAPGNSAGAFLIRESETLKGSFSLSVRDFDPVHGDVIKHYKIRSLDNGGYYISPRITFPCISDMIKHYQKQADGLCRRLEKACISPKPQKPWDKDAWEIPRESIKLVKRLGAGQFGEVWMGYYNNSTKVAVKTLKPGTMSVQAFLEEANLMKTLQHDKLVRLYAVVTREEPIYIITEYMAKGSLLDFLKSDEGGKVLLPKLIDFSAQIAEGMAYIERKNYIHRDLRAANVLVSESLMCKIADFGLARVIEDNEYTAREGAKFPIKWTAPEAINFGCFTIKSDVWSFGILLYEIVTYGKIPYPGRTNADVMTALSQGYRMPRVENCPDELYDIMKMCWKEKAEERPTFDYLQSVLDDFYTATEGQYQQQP
Chain of BLK (P51451 whole entry): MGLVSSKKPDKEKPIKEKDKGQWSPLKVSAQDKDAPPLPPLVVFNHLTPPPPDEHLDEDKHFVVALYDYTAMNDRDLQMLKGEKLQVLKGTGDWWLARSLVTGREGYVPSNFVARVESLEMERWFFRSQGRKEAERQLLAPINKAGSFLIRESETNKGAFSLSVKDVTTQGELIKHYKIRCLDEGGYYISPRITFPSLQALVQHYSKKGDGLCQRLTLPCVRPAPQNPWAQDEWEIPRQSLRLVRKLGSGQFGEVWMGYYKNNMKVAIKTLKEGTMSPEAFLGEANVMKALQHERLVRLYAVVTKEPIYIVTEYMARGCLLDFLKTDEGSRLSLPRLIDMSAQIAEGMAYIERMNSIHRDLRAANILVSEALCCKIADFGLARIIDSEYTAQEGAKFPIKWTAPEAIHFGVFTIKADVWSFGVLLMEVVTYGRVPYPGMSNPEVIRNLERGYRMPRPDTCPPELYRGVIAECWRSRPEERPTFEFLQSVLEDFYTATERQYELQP

| Structure (SMILES) | pIC50 (Lyn) | pIC50 (BLK) | pIC50 (BMX) | pIC50 (CSK) | pIC50 (Lck) | pIC50 (Btk) | pIC50 (C-src) | pIC50 (Tec) | pIC50 (RET) | pIC50 (EGFR) |
| --- | --- | --- | --- | --- | --- | --- | --- | --- | --- | --- |
| CN(C)C/C=C/C(=O)N1CC[C@@H](n2nc(-c3ccc(Cl)cc3)c3c(N)ncnc32)C1 [Example 1, (E)-1-((R)-3-(4-amino-3-(4-chlorophenyl)-1H-pyrazolo[3,4-d]pyrimidin-1-yl)pyrrolidin-1-yl)-4-(dimethylamino)but-2-en-1-one] | 6.00 to 7.00 | > 7.00 | > 7.00 | 6.00 to 7.00 | 6.00 to 7.00 | > 7.00 | > 7.00 | > 7.00 | 6.00 to 7.00 | 6.00 to 7.00 |
| CN(C)C/C=C/C(=O)N1CC[C@@H](n2nc(-c3ccc(F)cc3)c3c(N)ncnc32)C1 [Example 3, (R,E)-1-(3-(4-amino-3-(4-fluorophenyl)-1H-pyrazolo[3,4-d]pyrimidin-1-yl)pyrrolidin-1-yl)-4-(dimethylamino)but-2-en-1-one] | < 6.00 | 6.00 to 7.00 | > 7.00 | < 6.00 | < 6.00 | > 7.00 | 6.00 to 7.00 | > 7.00 | < 6.00 | < 6.00 |
| Cc1ccc(-c2nn([C@@H]3CCN(C(=O)/C=C/CN(C)C)C3)c3ncnc(N)c23)cc1 [Example 4, (R,E)-1-(3-(4-amino-3-p-tolyl-1H-pyrazolo[3,4-d]pyrimidin-1-yl)pyrrolidin-1-yl)-4-(dimethylamino)but-2-en-1-one] | 6.00 to 7.00 | > 7.00 | > 7.00 | < 6.00 | 6.00 to 7.00 | > 7.00 | 6.00 to 7.00 | > 7.00 | 6.00 to 7.00 | 6.00 to 7.00 |
| COc1ccc(-c2nn([C@@H]3CCN(C(=O)/C=C/CN(C)C)C3)c3ncnc(N)c23)cc1 [Example 5, (R,E)-1-(3-(4-amino-3-(4-methoxyphenyl)-1H-pyrazolo[3,4-d]pyrimidin-1-yl)pyrrolidin-1-yl)-4-(dimethylamino)but-2-en-1-one] | 6.00 to 7.00 | > 7.00 | > 7.00 | < 6.00 | 6.00 to 7.00 | > 7.00 | 6.00 to 7.00 | > 7.00 | 6.00 to 7.00 | < 6.00 |
| COc1cccc(-c2nn([C@@H]3CCN(C(=O)/C=C/CN(C)C)C3)c3ncnc(N)c23)c1 [Example 6, (R,E)-1-(3-(4-amino-3-(3-methoxyphenyl)-1H-pyrazolo[3,4-d]pyrimidin-1-yl)pyrrolidin-1-yl)-4-(dimethylamino)but-2-en-1-one] | 6.00 to 7.00 | > 7.00 | > 7.00 | < 6.00 | 6.00 to 7.00 | > 7.00 | > 7.00 | > 7.00 | 6.00 to 7.00 | 6.00 to 7.00 |
| CN(C)C/C=C/C(=O)N1CC[C@@H](n2nc(-c3ccc(Cl)cc3F)c3c(N)ncnc32)C1 [Example 7, (R,E)-1-(3-(4-amino-3-(4-chloro-2-fluorophenyl)-1H-pyrazolo[3,4-d]pyrimidin-1-yl)pyrrolidin-1-yl)-4-(dimethylamino)but-2-en-1-one] | 6.00 to 7.00 | 6.00 to 7.00 | > 7.00 | 6.00 to 7.00 | 6.00 to 7.00 | > 7.00 | > 7.00 | > 7.00 | 6.00 to 7.00 | 6.00 to 7.00 |
| COc1cc(-c2nn([C@@H]3CCN(C(=O)/C=C/CN(C)C)C3)c3ncnc(N)c23)ccc1F [Example 8, (R,E)-1-(3-(4-amino-3-(4-fluoro-3-methoxyphenyl)-1H-pyrazolo[3,4-d]pyrimidin-1-yl)pyrrolidin-1-yl)-4-(dimethylamino)but-2-en-1-one] | < 6.00 | 6.00 to 7.00 | > 7.00 | < 6.00 | 6.00 to 7.00 | > 7.00 | 6.00 to 7.00 | > 7.00 | < 6.00 | 6.00 to 7.00 |
| COc1cc(-c2nn(-c3cccc(N(C)C(=O)/C=C/CN(C)C4CC4)c3)c3ncnc(N)c23)ccc1C [Example 24, (E)-N-(3-(4-amino-3-(3-methoxy-4-methylphenyl)-1H-pyrazolo[3,4-d]pyrimidin-1-yl)phenyl)-4-(cyclopropyl(methyl)amino)-N-methylbut-2-enamide] | > 7.00 | > 7.00 | > 7.00 | < 6.00 | 6.00 to 7.00 | > 7.00 | 6.00 to 7.00 | > 7.00 | < 6.00 |  |

— US9546172B2, “Pyrazolo[3,4-d]pyrimidine and pyrazolo[2,3-d]pyrimidine compounds as kinase inhibitors” (Pharmacyclics LLC, priority 2011, dated 2017)
